Reference: US20250136578A1 (Kolm Therapeutics Inc., priority 2023, published 2025)
Read-outs that look alike come from different tables or passages of the source.

What was measured:
AR / CBP ternary complex = AR / CBP ternary complex (Homo sapiens, UniProt P10275+Q92793); assay: Ternary complex formation assay (sandwich ELISA, AR capture, CBP antibody detection) in VCaP cell lysates; assay type: cell-based
Outline: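 VCaP cells in 5% charcoal-stripped FBS were cultured ≥3 days and then given bifunctional compound for 1.5 h. Lysates went onto AR-antibody-coated plates. Bound CBP (or p300) was detected with a rabbit antibody plus HRP anti-rabbit, using QuantaRed chemifluorescence (ex 570/em 585) read immediately, at 5 min and at 15 min.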

VCaP cells = assay: VCaP growth inhibition assay (CTG); assay type: cell-based; conditions: Homo sapiens, 216 h, 30 pM R1881, 9 days
Outline: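 VCaP cells in phenol red-free DMEM with 5% charcoal-stripped serum were stimulated with 30 pM R1881 (final) and treated with compound from 100 nM to 10 fM final (1:5 dilutions) for 9 days at 37 °C. Viability was read by CellTiter-Glo luminescence, and IC50 came from 4-parameter logistic fits.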

[1] = treated 1.5 hours, rabbit CBP or p300 antibody detection, average, read-out: Average Ternary Complex
[2] = read-out: Average Ternary Complex, treated 1.5 hours, rabbit CBP or p300 antibody detection

Chain of AR / CBP ternary complex (P10275 whole entry): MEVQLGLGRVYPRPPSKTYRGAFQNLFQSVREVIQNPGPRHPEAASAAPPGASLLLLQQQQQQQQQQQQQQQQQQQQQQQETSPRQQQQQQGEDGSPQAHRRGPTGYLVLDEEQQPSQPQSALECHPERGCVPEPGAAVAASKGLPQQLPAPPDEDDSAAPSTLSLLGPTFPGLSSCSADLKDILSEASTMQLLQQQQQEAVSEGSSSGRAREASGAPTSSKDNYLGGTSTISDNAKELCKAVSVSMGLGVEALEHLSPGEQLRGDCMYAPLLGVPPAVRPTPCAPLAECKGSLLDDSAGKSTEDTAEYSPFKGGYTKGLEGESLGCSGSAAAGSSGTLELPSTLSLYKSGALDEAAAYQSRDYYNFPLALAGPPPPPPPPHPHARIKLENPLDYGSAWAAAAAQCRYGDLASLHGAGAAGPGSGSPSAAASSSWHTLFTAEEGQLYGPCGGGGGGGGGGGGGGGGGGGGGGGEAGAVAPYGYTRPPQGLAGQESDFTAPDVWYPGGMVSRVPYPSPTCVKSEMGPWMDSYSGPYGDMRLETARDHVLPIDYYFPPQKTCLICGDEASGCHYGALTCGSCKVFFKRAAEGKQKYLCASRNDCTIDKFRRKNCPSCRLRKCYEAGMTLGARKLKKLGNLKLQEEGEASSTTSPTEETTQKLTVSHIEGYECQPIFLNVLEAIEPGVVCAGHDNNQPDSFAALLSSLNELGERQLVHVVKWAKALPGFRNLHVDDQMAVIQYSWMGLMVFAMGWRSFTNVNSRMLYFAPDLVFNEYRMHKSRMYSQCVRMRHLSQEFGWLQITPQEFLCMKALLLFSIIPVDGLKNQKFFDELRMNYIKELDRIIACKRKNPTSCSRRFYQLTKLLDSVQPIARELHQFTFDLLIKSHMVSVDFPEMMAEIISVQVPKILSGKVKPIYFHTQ
Chain of AR / CBP ternary complex (Q92793 2-2442): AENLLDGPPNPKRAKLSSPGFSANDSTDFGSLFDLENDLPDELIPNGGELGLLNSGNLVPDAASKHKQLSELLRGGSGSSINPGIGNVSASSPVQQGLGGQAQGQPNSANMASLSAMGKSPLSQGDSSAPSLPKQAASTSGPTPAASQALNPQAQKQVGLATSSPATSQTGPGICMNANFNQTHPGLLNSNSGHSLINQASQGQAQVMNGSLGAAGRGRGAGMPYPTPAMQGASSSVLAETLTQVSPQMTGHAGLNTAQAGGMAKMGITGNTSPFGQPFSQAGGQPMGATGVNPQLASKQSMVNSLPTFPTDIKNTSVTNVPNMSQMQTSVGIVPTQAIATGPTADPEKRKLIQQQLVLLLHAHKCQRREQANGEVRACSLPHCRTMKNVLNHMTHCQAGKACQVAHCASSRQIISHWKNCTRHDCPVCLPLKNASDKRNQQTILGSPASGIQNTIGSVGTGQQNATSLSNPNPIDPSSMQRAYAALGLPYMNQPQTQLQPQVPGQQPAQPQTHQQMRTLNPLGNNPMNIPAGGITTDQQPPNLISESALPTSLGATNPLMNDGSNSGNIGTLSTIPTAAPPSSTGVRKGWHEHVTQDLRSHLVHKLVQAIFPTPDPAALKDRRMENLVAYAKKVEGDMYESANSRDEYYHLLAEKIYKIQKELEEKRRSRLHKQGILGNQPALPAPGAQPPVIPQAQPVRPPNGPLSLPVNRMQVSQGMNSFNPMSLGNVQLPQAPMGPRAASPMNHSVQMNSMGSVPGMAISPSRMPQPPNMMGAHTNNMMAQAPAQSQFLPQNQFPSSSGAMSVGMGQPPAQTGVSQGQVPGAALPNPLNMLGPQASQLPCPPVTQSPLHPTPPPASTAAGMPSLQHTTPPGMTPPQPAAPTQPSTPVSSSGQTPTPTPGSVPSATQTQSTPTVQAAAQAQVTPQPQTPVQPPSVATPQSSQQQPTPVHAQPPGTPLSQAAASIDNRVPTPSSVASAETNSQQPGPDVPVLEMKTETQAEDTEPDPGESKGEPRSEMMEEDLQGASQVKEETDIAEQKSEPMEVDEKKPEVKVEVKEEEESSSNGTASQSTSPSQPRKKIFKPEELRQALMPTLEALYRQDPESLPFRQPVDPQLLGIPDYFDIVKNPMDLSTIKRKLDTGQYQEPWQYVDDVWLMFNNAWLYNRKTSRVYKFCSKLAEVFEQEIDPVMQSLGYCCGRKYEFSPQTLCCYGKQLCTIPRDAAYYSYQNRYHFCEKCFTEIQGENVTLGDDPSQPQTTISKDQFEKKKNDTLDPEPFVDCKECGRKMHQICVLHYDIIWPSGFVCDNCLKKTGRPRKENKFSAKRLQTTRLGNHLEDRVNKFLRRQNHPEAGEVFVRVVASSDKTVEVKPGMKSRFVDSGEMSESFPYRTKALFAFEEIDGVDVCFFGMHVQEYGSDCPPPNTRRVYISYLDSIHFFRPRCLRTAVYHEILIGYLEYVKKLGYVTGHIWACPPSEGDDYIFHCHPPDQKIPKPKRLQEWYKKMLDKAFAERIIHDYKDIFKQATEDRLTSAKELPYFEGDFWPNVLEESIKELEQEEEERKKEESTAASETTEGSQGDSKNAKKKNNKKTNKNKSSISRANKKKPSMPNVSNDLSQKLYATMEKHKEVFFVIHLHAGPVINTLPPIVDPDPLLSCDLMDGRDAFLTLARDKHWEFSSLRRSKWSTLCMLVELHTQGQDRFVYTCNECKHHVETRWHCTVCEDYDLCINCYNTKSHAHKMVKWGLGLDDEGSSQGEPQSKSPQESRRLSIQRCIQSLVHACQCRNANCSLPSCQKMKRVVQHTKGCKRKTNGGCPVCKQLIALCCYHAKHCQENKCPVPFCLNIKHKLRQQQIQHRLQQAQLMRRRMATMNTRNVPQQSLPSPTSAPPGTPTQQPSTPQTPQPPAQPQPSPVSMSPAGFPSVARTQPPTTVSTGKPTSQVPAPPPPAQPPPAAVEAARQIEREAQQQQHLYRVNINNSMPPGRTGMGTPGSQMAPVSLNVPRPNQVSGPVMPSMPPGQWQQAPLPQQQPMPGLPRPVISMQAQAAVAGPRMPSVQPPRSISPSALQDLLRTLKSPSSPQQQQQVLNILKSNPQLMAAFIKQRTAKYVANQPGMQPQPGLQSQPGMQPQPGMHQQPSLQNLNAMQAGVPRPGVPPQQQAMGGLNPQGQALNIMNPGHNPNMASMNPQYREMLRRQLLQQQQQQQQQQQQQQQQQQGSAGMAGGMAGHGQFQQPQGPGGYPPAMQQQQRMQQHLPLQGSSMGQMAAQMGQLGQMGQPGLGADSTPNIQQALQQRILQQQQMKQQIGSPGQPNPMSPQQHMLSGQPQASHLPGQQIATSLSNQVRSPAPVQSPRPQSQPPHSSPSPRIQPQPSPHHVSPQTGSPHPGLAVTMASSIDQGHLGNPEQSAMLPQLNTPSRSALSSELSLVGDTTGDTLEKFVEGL

Compound | EC50 (AR / CBP ternary complex; [1]) [nM] | IC50 (VCaP cells) [nM] | EC50 (AR / CBP ternary complex; [2]) [nM]
COc1cc(O[C@H]2CC[C@H](NC(=O)c3ccc(N4CCC(CN5CCC(n6nc(N7CCCc8cc(-c9cnn(C)c9)c(C(F)F)cc87)c7c6CCN(C(C)=O)C7)CC5)CC4)cc3)CC2)ccc1C#N [Compound 140, 4-[4-[[4-[5-acetyl-3-[7-(difluoromethyl)-6-(1-methylpyrazol-4-yl)-3,4-dihydro-2H-quinolin-1-yl]-6,7-dihydro-4H-pyrazolo[4,3-c]pyridin-1-yl]-1-piperidyl]methyl]-1-piperidyl]-N-[4-(4-cyano-3-methoxy-phenoxy)cyclohexyl]benzamide] | < 1 | ≤ 0.1 | 
Cn1cc(-c2cc3cccc(-c4cc(C5=CCN(CC6CCN(c7ccc(C(=O)N[C@H]8CC[C@H](Oc9ccc(C#N)c(Cl)c9)CC8)nn7)CC6)CC5)c5c(c4)n(C)c(=O)n5C)c3cn2)cn1 [Compound 147, N-[4-(3-chloro-4-cyano-phenoxy)cyclohexyl]-6-[4-[[4-[1,3-dimethyl-6-[3-(1-methylpyrazol-4-yl)-8-isoquinolyl]-2-oxo-benzimidazol-4-yl]-3,6-dihydro-2H-pyridin-1-yl]methyl]-1-piperidyl]pyridazine-3-carboxamide] | < 1 | 0.1 to 1 | 
CC(=O)N1CCc2c(c(N3CCCc4cc(-c5cnn(C)c5)c(C(F)F)cc43)nn2[C@@H]2[C@@H]3C[C@H]2CN(CC2CCN(c4ccc(C(=O)N[C@H]5CC[C@H](Oc6ccc(C#N)c(Cl)c6)CC5)nn4)CC2)C3)C1 [Compound 149, N-[4-(3-chloro-4-cyano-phenoxy)cyclohexyl]-6-[4-[[rac-(1S,5R)-6-[5-acetyl-3-[7-(difluoromethyl)-6-(1-methylpyrazol-4-yl)-3,4-dihydro-2H-quinolin-1-yl]-6,7-dihydro-4H-pyrazolo[4,3-c]pyridin-1-yl]-3-azabicyclo[3.1.1]heptan-3-yl]methyl]-1-piperidyl]pyridazine-3-carboxamide] |  | 0.1 to 1 | < 1
CC(=O)N1CCc2c(c(N3CCCc4cc(-c5cnn(C)c5)c(C(F)F)cc43)nn2[C@H]2[C@@H]3C[C@H]2CN(CC2CCN(c4ccc(C(=O)N[C@H]5CC[C@H](Oc6ccc(C#N)c(Cl)c6)CC5)nn4)CC2)C3)C1 [Compound 150, N-[4-(3-chloro-4-cyano-phenoxy)cyclohexyl]-6-[4-[[rac-(1R,5S)-6-[5-acetyl-3-[7-(difluoromethyl)-6-(1-methylpyrazol-4-yl)-3,4-dihydro-2H-quinolin-1-yl]-6,7-dihydro-4H-pyrazolo[4,3-c]pyridin-1-yl]-3-azabicyclo[3.1.1]heptan-3-yl]methyl]-1-piperidyl]pyridazine-3-carboxamide] |  | 0.1 to 1 | 1 to 10
CC(=O)N1CCc2c(c(N3CCCc4cc(-c5cnn(C)c5)c(C(F)F)cc43)nn2[C@@H]2C[C@H]3CC[C@@H](C2)N3CC2CCN(c3ccc(C(=O)N[C@H]4CC[C@H](Oc5ccc(C#N)c(Cl)c5)CC4)nn3)CC2)C1 [Compound 152, 6-[4-[[(1R,5S)-3-[5-acetyl-3-[7-(difluoromethyl)-6-(1-methylpyrazol-4-yl)-3,4-dihydro-2H-quinolin-1-yl]-6,7-dihydro-4H-pyrazolo[4,3-c]pyridin-1-yl]-8-azabicyclo[3.2.1]octan-8-yl]methyl]-1-piperidyl]-N-[4-(3-chloro-4-cyano-phenoxy)cyclohexyl]pyridazine-3-carboxamide] |  | 0.1 to 1 | < 1
CC(=O)N1CCc2c(c(-c3cccc4cc(-c5ccc(CCC6CCN(c7ccc(C(=O)N[C@H]8CC[C@H](Oc9ccc(C#N)c(Cl)c9)CC8)nn7)CC6)cc5)ncc34)nn2C2CCOCC2)C1 [Compound 153, 6-[4-[2-[4-[8-(5-acetyl-1-tetrahydropyran-4-yl-6,7-dihydro-4H-pyrazolo[4,3-c]pyridin-3-yl)-3-isoquinolyl]phenyl]ethyl]-1-piperidyl]-N-[4-(3-chloro-4-cyano-phenoxy)cyclohexyl]pyridazine-3-carboxamide] | < 1 | ≤ 0.1 | 
CC(=O)N1CCc2c(c(N3CCCc4cc(-c5ccc(CCC6CCN(c7ccc(C(=O)N[C@H]8CC[C@H](Oc9ccc(C#N)c(Cl)c9)CC8)nn7)CC6)cc5)c(C(F)F)cc43)nn2C2CCOCC2)C1 [Compound 154, 6-[4-[2-[4-[1-(5-acetyl-1-tetrahydropyran-4-yl-6,7-dihydro-4H-pyrazolo[4,3-c]pyridin-3-yl)-7-(difluoromethyl)-3,4-dihydro-2H-quinolin-6-yl]phenyl]ethyl]-1-piperidyl]-N-[4-(3-chloro-4-cyano-phenoxy)cyclohexyl]pyridazine-3-carboxamide] | < 1 | 0.1 to 1 | 

Second part, led by results:

EC50 (AR / CBP ternary complex; [1]) [nM] | IC50 (VCaP cells) [nM] | Compound | EC50 (AR / CBP ternary complex; [2]) [nM]
1 to 10 | 0.1 to 1 | Cc1cc2c(N3CCCc4cc(-c5cnn(C)c5)c(C(F)F)cc43)cc(N3CCN(CC4CCN(c5ccc(C(=O)N[C@H]6CC[C@H](Oc7ccc(C#N)c(Cl)c7)CC6)nn5)CC4)CC3)cc2n(C)c1=O [Compound 135, N-[4-(3-chloro-4-cyano-phenoxy)cyclohexyl]-6-[4-[[4-[5-[7-(difluoromethyl)-6-(1-methylpyrazol-4-yl)-3,4-dihydro-2H-quinolin-1-yl]-1,3-dimethyl-2-oxo-7-quinolyl]piperazin-1-yl]methyl]-1-piperidyl]pyridazine-3-carboxamide] | 
1 to 10 | 1 to 100 | Cc1cc2c(N3CCN(C)c4cc(C5CC5)ncc43)cc(N3CCN(CC4CCN(c5ccc(C(=O)N[C@H]6CC[C@H](Oc7ccc(C#N)c(Cl)c7)CC6)nn5)CC4)CC3)cc2n(C)c1=O [Compound 138, N-[4-(3-chloro-4-cyano-phenoxy)cyclohexyl]-6-[4-[[4-[5-(7-cyclopropyl-1-methyl-2,3-dihydropyrido[3,4-b]pyrazin-4-yl)-1,3-dimethyl-2-oxo-7-quinolyl]piperazin-1-yl]methyl]-1-piperidyl]pyridazine-3-carboxamide] | 
< 1 | ≤ 0.1 | CC(=O)N1CCc2c(c(N3CCCc4cc(-c5cnn(C)c5)c(C(F)F)cc43)nn2C2CCN(CC3CCN(c4ccc(C(=O)N[C@H]5CC[C@H](Oc6ccc(C#N)c(Cl)c6)CC5)cc4)CC3)CC2)C1 [Compound 139, 4-[4-[[4-[5-acetyl-3-[7-(difluoromethyl)-6-(1-methylpyrazol-4-yl)-3,4-dihydro-2H-quinolin-1-yl]-6,7-dihydro-4H-pyrazolo[4,3-c]pyridin-1-yl]-1-piperidyl]methyl]-1-piperidyl]-N-[4-(3-chloro-4-cyano-phenoxy)cyclohexyl] benzamide] | 
< 1 | ≤ 0.1 | CC(=O)N1CCc2c(c(N3CCCc4cc(-c5cnn(C)c5)c(C(F)F)cc43)nn2[C@@H]2CCN(CC3CCN(c4ccc(C(=O)N[C@H]5CC[C@H](Oc6ccc(C#N)c(Cl)c6)CC5)nn4)CC3)C[C@H]2F)C1 [Compound 141, 6-[4-[[(3R,4R)-4-[5-acetyl-3-[7-(difluoromethyl)-6-(1-methylpyrazol-4-yl)-3,4-dihydro-2H-quinolin-1-yl]-6,7-dihydro-4H-pyrazolo[4,3-c]pyridin-1-yl]-3-fluoro-1-piperidyl]methyl]-1-piperidyl]-N-[4-(3-chloro-4-cyano-phenoxy)cyclohexyl]pyridazine-3-carboxamide] | 
< 1 | ≤ 0.1 | CC(=O)N1CCc2c(c(N3CCCc4cc(-c5cnn(C)c5)c(C(F)F)cc43)nn2[C@@H]2CCN(CC3CCN(c4ccc(C(=O)N[C@H]5CC[C@H](Oc6ccc(C#N)c(Cl)c6)CC5)nn4)CC3)C[C@@H]2F)C1 [Compound 144, 6-[4-[[(3S,4R)-4-[5-acetyl-3-[7-(difluoromethyl)-6-(1-methylpyrazol-4-yl)-3,4-dihydro-2H-quinolin-1-yl]-6,7-dihydro-4H-pyrazolo[4,3-c]pyridin-1-yl]-3-fluoro-1-piperidyl]methyl]-1-piperidyl]-N-[4-(3-chloro-4-cyano-phenoxy)cyclohexyl] pyridazine-3-carboxamide] | 
< 1 | 0.1 to 1 | CC(=O)N1CCc2c(c(N3CCCc4cc(-c5cnn(C)c5)c(C(F)F)cc43)nn2[C@H]2CC[C@H](CC3CCN(c4ccc(C(=O)N[C@H]5CC[C@H](Oc6ccc(C#N)c(Cl)c6)CC5)nn4)CC3)CC2)C1 [Compound 145, 6-[4-[[4-[5-acetyl-3-[7-(difluoromethyl)-6-(1-methylpyrazol-4-yl)-3,4-dihydro-2H-quinolin-1-yl]-6,7-dihydro-4H-pyrazolo[4,3-c]pyridin-1-yl]cyclohexyl]methyl]-1-piperidyl]-N-[4-(3-chloro-4-cyano-phenoxy)cyclohexyl]pyridazine-3-carboxamide] | 
< 1 | 0.1 to 1 | Cn1cc(-c2cc3c(cc2C(F)F)N(c2cc(C4=CCN(CC5CCN(c6ccc(C(=O)N[C@H]7CC[C@H](Oc8ccc(C#N)c(Cl)c8)CC7)nn6)CC5)CC4)c4c(c2)n(C)c(=O)n4C)CCC3)cn1 [Compound 148] | 
< 1 | 0.1 to 1 | CC(=O)N1CCc2c(c(N3CCCc4cc(-c5cnn(C)c5)c(C(F)F)cc43)nn2C2CCC(CC3CCN(c4ccc(C(=O)N[C@H]5CC[C@H](Oc6ccc(C#N)c(Cl)c6)CC5)nn4)CC3)CC2)C1 (stereo partly drawn) [Compound 155, 6-[4-[[4-[5-acetyl-3-[7-(difluoromethyl)-6-(1-methylpyrazol-4-yl)-3,4-dihydro-2H-quinolin-1-yl]-6,7-dihydro-4H-pyrazolo[4,3-c]pyridin-1-yl]cyclohexyl]methyl]-1-piperidyl]-N-[4-(3-chloro-4-cyano-phenoxy)cyclohexyl]pyridazine-3-carboxamide] | 
